Test results taken from ChEMBL document CHEMBL1143505, “Synthesis and pharmacological investigation of novel 1-substituted-4-phenyl-1,2,4-triazolo[4,3-a]quinazolin-5(4H)-ones as a new class of H1-antihistaminic agents” (2005).

Experiments:
Cavia porcellus [1] = species: Cavia porcellus; assay: Percentage reduction central nervous system depression in guinea pig by compound
Cavia porcellus [2] = species: Cavia porcellus; assay: Percentage protection of guinea pigs from histamine induced bronchospasm by compound; set-up: concentration or dose not given beside the values

Row | Compound | Depression (Cavia porcellus [1]) [%] | Protection (Cavia porcellus [2]) [%]
1 | O=c1c2ccccc2n2cnnc2n1-c1ccccc1 | 4.2 | 69.9
2 | Cc1nnc2n(-c3ccccc3)c(=O)c3ccccc3n12 | 4.8 | 70.7
3 | O=c1c2ccccc2n2c(CCl)nnc2n1-c1ccccc1 | 3.7 | 68.7
4 | CCCc1nnc2n(-c3ccccc3)c(=O)c3ccccc3n12 | 7.3 | 69.2
5 | CCc1nnc2n(-c3ccccc3)c(=O)c3ccccc3n12 | 5.3 | 70
6 | O=C(O)COCCN1CCN(C(c2ccccc2)c2ccc(Cl)cc2)CC1 (centres undefined) [CETIRIZINE] | 8.5 | 78.9
7 | CN(C)CCC(c1ccc(Cl)cc1)c1ccccn1.O=C(O)/C=C\C(=O)O (centres undefined) [CHLORPHENIRAMINE MALEATE] | 26 | 71
